The NIST ThermoML archive (doi:10.1016/j.jct.2004.12.008)

Experiment: xn = mol fraction of the nth substance listed
Details: 101 kPa, Liquid

O=[N+]([O-])c1ccccc1 [nitrobenzene] + Cc1cccc(C)c1
Details	mass density [kg/m3]
293.15 K, x2 = 0	1202.95
293.15 K, x2 = 0.0549	1181.56
293.15 K, x2 = 0.1248	1154.92
293.15 K, x2 = 0.1832	1133.14
293.15 K, x2 = 0.2489	1109.13
293.15 K, x2 = 0.3134	1086.03
293.15 K, x2 = 0.3681	1066.8
293.15 K, x2 = 0.4234	1047.66
293.15 K, x2 = 0.4892	1025.28
293.15 K, x2 = 0.5321	1010.91
293.15 K, x2 = 0.6013	988.09
293.15 K, x2 = 0.6539	971.01
293.15 K, x2 = 0.7242	948.56
293.15 K, x2 = 0.7811	930.68
293.15 K, x2 = 0.8631	905.36
293.15 K, x2 = 0.9321	884.44
303.15 K, x2 = 0	1193.56
303.15 K, x2 = 0.0478	1174.85
303.15 K, x2 = 0.1132	1149.78
303.15 K, x2 = 0.1812	1124.32
303.15 K, x2 = 0.2343	1104.85
303.15 K, x2 = 0.2943	1083.27
303.15 K, x2 = 0.3535	1062.36
303.15 K, x2 = 0.4143	1041.29
303.15 K, x2 = 0.4711	1021.95
303.15 K, x2 = 0.5243	1004.13
303.15 K, x2 = 0.6123	975.24
303.15 K, x2 = 0.6811	953.14
303.15 K, x2 = 0.7423	933.82
303.15 K, x2 = 0.8132	911.82
303.15 K, x2 = 0.8834	890.44
303.15 K, x2 = 0.9432	872.53
313.15 K, x2 = 0	1183.37
313.15 K, x2 = 0.0723	1155.17
313.15 K, x2 = 0.1289	1133.64
313.15 K, x2 = 0.1732	1117.09
313.15 K, x2 = 0.2212	1099.45
313.15 K, x2 = 0.2811	1077.85
313.15 K, x2 = 0.3635	1048.82
313.15 K, x2 = 0.4244	1027.87
313.15 K, x2 = 0.4823	1008.31
313.15 K, x2 = 0.5423	988.4
313.15 K, x2 = 0.6131	965.35
313.15 K, x2 = 0.6732	946.15
313.15 K, x2 = 0.749	922.4
313.15 K, x2 = 0.8313	897.16
313.15 K, x2 = 0.8724	884.76
313.15 K, x2 = 0.9331	866.7
323.15 K, x2 = 0	1172.38
323.15 K, x2 = 0.0698	1145.18
323.15 K, x2 = 0.1321	1121.54
323.15 K, x2 = 0.1832	1102.55
323.15 K, x2 = 0.2576	1075.53
323.15 K, x2 = 0.3139	1055.55
323.15 K, x2 = 0.3781	1033.23
323.15 K, x2 = 0.4527	1007.89
323.15 K, x2 = 0.5198	985.6
323.15 K, x2 = 0.5631	971.45
323.15 K, x2 = 0.6398	946.86
323.15 K, x2 = 0.7043	926.6
323.15 K, x2 = 0.7731	905.4
323.15 K, x2 = 0.8343	886.88
323.15 K, x2 = 0.8623	878.51
323.15 K, x2 = 0.9423	854.95
333.15 K, x2 = 0	1160.59
333.15 K, x2 = 0.0499	1141.14
333.15 K, x2 = 0.1244	1112.83
333.15 K, x2 = 0.1674	1096.86
333.15 K, x2 = 0.234	1072.65
333.15 K, x2 = 0.3089	1046.1
333.15 K, x2 = 0.3598	1028.47
333.15 K, x2 = 0.4242	1006.59
333.15 K, x2 = 0.4972	982.35
333.15 K, x2 = 0.5672	959.63
333.15 K, x2 = 0.6319	939.07
333.15 K, x2 = 0.7133	913.77
333.15 K, x2 = 0.7632	898.55
333.15 K, x2 = 0.8347	877.13
333.15 K, x2 = 0.8824	863.08
333.15 K, x2 = 0.9323	848.58
343.15 K, x2 = 0	1148
343.15 K, x2 = 0.0598	1124.88
343.15 K, x2 = 0.1123	1105.06
343.15 K, x2 = 0.1842	1078.58
343.15 K, x2 = 0.2542	1053.5
343.15 K, x2 = 0.3243	1029.04
343.15 K, x2 = 0.3831	1008.98
343.15 K, x2 = 0.4425	989.14
343.15 K, x2 = 0.5131	966.07
343.15 K, x2 = 0.5728	946.96
343.15 K, x2 = 0.6392	926.14
343.15 K, x2 = 0.6901	910.47
343.15 K, x2 = 0.7532	891.38
343.15 K, x2 = 0.8242	870.31
343.15 K, x2 = 0.8731	856.05
343.15 K, x2 = 0.9238	841.48
353.15 K, x2 = 0	1134.61
353.15 K, x2 = 0.0532	1114.19
353.15 K, x2 = 0.1289	1085.92
353.15 K, x2 = 0.1984	1060.73
353.15 K, x2 = 0.2429	1044.96
353.15 K, x2 = 0.3092	1021.96
353.15 K, x2 = 0.3711	1000.98
353.15 K, x2 = 0.4248	983.16
353.15 K, x2 = 0.4891	962.26
353.15 K, x2 = 0.5518	942.3
353.15 K, x2 = 0.6138	922.97
353.15 K, x2 = 0.6731	904.84
353.15 K, x2 = 0.7294	887.93
353.15 K, x2 = 0.8013	866.76
353.15 K, x2 = 0.8673	847.71
353.15 K, x2 = 0.9451	825.73
